{"source": "patent US10786477B2", "about": "“Formulations having anti-inflammatory activity and antimicrobial activity against gram-positive bacteria” (NATUREZA, INC., priority 2014, dated 2020)", "key": {"[1]": {"test_system": "S. mitis", "assay": "MIC, CLSI broth microdilution M07", "assay_type": "cell-based, Streptococcus mitis"}, "[2]": {"test_system": "C. difficile", "assay": "MIC, CLSI broth microdilution M07", "assay_type": "cell-based, Clostridium difficile"}, "[3]": {"test_system": "bacteria", "conditions": "background, cited from earlier work; for antibacterial / antimicrobial activity: compared with lauric acid"}, "[4]": {"test_system": "strains of Staphylococcus", "assay": "Bacterial growth in presence of first-example suspensions", "assay_type": "cell-based, Staphylococcus spp.", "conditions": "first example: optically clear suspensions of 1 wt.% active component combined with 2% bile", "text": "In these examples, the optically clear suspensions were combined with 2% bile when evaluating activity against various bacteria."}, "[5]": {"test_system": "S. epidemidis", "assay": "MIC, CLSI broth microdilution M07", "assay_type": "cell-based, Staphylococcus epidermidis"}, "[6]": {"test_system": "S. aureus", "assay": "MIC, CLSI broth microdilution M07", "assay_type": "cell-based, Staphylococcus aureus"}, "[7]": {"test_system": "C. albicans", "assay": "MIC of fungi, CLSI broth microdilution M27", "assay_type": "cell-based", "conditions": "Candida albicans; Table 2; active component range 0.08-8 mg/ml"}, "[8]": {"test_system": "Mycobacterium", "assay": "MIC, CLSI broth microdilution", "assay_type": "cell-based", "conditions": "Table 1; active component in compositions of first example; range 0.08-5 wt.%"}, "[9]": {"test_system": "S. pyogenes", "assay": "MIC, CLSI broth microdilution M07", "assay_type": "cell-based, Streptococcus pyogenes"}, "[10]": {"test_system": "B. bifidum", "assay": "MIC, CLSI broth microdilution M07", "assay_type": "cell-based", "conditions": "Bifidobacterium bifidum; Table 2; active component range 0.08-8 mg/ml; >8 = no inhibitory effect"}, "[11]": {"test_system": "E coli", "assay": "MIC, CLSI broth microdilution M07", "assay_type": "cell-based, Escherichia coli"}, "[12]": {"test_system": "Lactobacillus spp.", "assay": "MIC, CLSI broth microdilution M07", "assay_type": "cell-based"}, "[13]": {"test_system": "M. bovis", "assay": "microbe, parasite or virus in culture", "assay_type": "cell-based"}, "[14]": {"test_system": "L. acidophilus", "assay": "MIC, CLSI broth microdilution M07", "assay_type": "cell-based", "conditions": "Lactobacillus acidophilus; Table 2; active component range 0.08-8 mg/ml; >8 = no inhibitory effect"}, "[15]": {"test_system": "Bifidobacterium", "assay": "MIC, CLSI broth microdilution M07", "assay_type": "cell-based"}, "[16]": {"test_system": "S. mutans", "assay": "MIC, CLSI broth microdilution M07", "assay_type": "cell-based, Streptococcus mutans"}, "[17]": {"test_system": "Candida", "assay": "MIC of fungi, CLSI broth microdilution M27", "assay_type": "cell-based"}, "[18]": {"conditions": "Table 1, active component in compositions of first example, range 0.08-5 wt.%"}, "[19]": {"conditions": "Table 3, active component range 0.0009-8 μg/ml, values match chitosan-coated liposomes of third example"}, "[20]": {"conditions": "Clostridioides difficile, Table 2, active component range 0.08-8 mg/ml, read-out: MIC"}, "[21]": {"conditions": "Staphylococcus aureus, Table 2, active component range 0.08-8 mg/ml, read-out: MIC"}, "[22]": {"conditions": "Escherichia coli, Table 2, active component range 0.08-8 mg/ml, >8 = no inhibitory effect, read-out: MIC"}, "[23]": {"conditions": "Table 1, active component in compositions of first example, range 0.08-5 wt.%, >>5% = no inhibitory effect"}, "[24]": {"conditions": "Mycobacterium tuberculosis variant bovis"}, "[25]": {"conditions": "Streptococcus mutans, Table 2, active component range 0.08-8 mg/ml, read-out: MIC"}}, "note": "Read-outs that look alike come from different tables or passages of the source."}
{"smiles": "CCCCCCCCCCCC(=O)OC", "note": "[ML, methyl laurate]", "values": [{"measurement": "MIC", "setting": "[1]; [18]", "result": 0.5, "unit": "%"}, {"measurement": "MIC", "setting": "[1]; [19]", "result": 0.0018, "unit": "%"}, {"measurement": "MIC", "setting": "[2]; [20]", "result": 800, "unit": "µg/mL"}, {"measurement": "MIC", "setting": "[2]; [18]", "result": 1, "unit": "%"}, {"measurement": "MIC", "setting": "[2]; [19]", "result": 0.0018, "unit": "%"}, {"measurement": "antibacterial / antimicrobial activity", "setting": "[3]", "result": "some modest antibacterial activity in vitro"}, {"measurement": "effect on bacterial growth", "setting": "[4]", "result": "significantly retarded bacterial growth"}, {"measurement": "MIC", "setting": "[5]; [18]", "result": 0.5, "unit": "%"}, {"measurement": "MIC", "setting": "[5]; [19]", "result": 0.0018, "unit": "%"}, {"measurement": "MIC", "setting": "[6]; [21]", "result": 800, "unit": "µg/mL"}, {"measurement": "MIC", "setting": "[6]; [18]", "result": 0.5, "unit": "%"}, {"measurement": "MIC", "setting": "[6]; [19]", "result": 0.0018, "unit": "%"}, {"measurement": "MIC", "setting": "[7]", "result": "< 80", "unit": "µg/mL"}, {"measurement": "MIC", "setting": "[8]", "result": 0.5, "unit": "%"}, {"measurement": "MIC", "setting": "[9]; [18]", "result": 0.5, "unit": "%"}, {"measurement": "MIC", "setting": "[9]; [19]", "result": 0.0018, "unit": "%"}, {"measurement": "MIC", "setting": "[10]", "result": "> 8000", "unit": "µg/mL"}, {"measurement": "MIC", "setting": "[11]; [22]", "result": "> 8000", "unit": "µg/mL"}, {"measurement": "MIC", "setting": "[11]; [23]", "result": ">>5%^"}, {"measurement": "MIC", "setting": "[11]; [19]", "result": ">>5%"}, {"measurement": "MIC", "setting": "[12]; [23]", "result": ">>5%^"}, {"measurement": "MIC", "setting": "[12]; [19]", "result": ">>5%"}, {"measurement": "MIC", "setting": "[13]; [24]", "result": 2000, "unit": "µg/mL"}, {"measurement": "MIC", "setting": "[13]; [19]", "result": 0.0018, "unit": "%"}, {"measurement": "MIC", "setting": "[14]", "result": "> 8000", "unit": "µg/mL"}, {"measurement": "MIC", "setting": "[15]; [23]", "result": ">>5%^"}, {"measurement": "MIC", "setting": "[15]; [19]", "result": ">>5%"}, {"measurement": "MIC", "setting": "[16]; [25]", "result": 800, "unit": "µg/mL"}, {"measurement": "MIC", "setting": "[16]; [18]", "result": 0.5, "unit": "%"}, {"measurement": "MIC", "setting": "[16]; [19]", "result": 0.0018, "unit": "%"}, {"measurement": "MIC", "setting": "[17]; [18]", "result": 0.5, "unit": "%"}, {"measurement": "MIC", "setting": "[17]; [19]", "result": 0.0018, "unit": "%"}]}
{"smiles": "CCCCCCCCCCCC(=O)OCC", "note": "[EL, ethyl laurate]", "values": [{"measurement": "MIC", "setting": "[1]; [18]", "result": 0.5, "unit": "%"}, {"measurement": "MIC", "setting": "[1]; [19]", "result": 0.0018, "unit": "%"}, {"measurement": "MIC", "setting": "[2]; [20]", "result": 800, "unit": "µg/mL"}, {"measurement": "MIC", "setting": "[2]; [18]", "result": 0.5, "unit": "%"}, {"measurement": "MIC", "setting": "[2]; [19]", "result": 0.0018, "unit": "%"}, {"measurement": "activity relative to lauric acid (times less active)", "setting": "[3]", "result": "forty times less active"}, {"measurement": "antibacterial / antimicrobial activity", "setting": "[3]", "result": "little or no antimicrobial activity"}, {"measurement": "effect on bacterial growth", "setting": "[4]", "result": "completely bacteriostatic"}, {"measurement": "MIC", "setting": "[5]; [18]", "result": 0.5, "unit": "%"}, {"measurement": "MIC", "setting": "[5]; [19]", "result": 0.0018, "unit": "%"}, {"measurement": "MIC", "setting": "[6]; [21]", "result": 800, "unit": "µg/mL"}, {"measurement": "MIC", "setting": "[6]; [18]", "result": 0.5, "unit": "%"}, {"measurement": "MIC", "setting": "[6]; [19]", "result": 0.0018, "unit": "%"}, {"measurement": "MIC", "setting": "[7]", "result": "< 80", "unit": "µg/mL"}, {"measurement": "MIC", "setting": "[8]", "result": 1, "unit": "%"}, {"measurement": "MIC", "setting": "[9]; [18]", "result": 0.5, "unit": "%"}, {"measurement": "MIC", "setting": "[9]; [19]", "result": 0.0018, "unit": "%"}, {"measurement": "MIC", "setting": "[10]", "result": "> 8000", "unit": "µg/mL"}, {"measurement": "MIC", "setting": "[11]; [22]", "result": "> 8000", "unit": "µg/mL"}, {"measurement": "MIC", "setting": "[11]; [23]", "result": ">>5%^"}, {"measurement": "MIC", "setting": "[11]; [19]", "result": ">>5%"}, {"measurement": "MIC", "setting": "[12]; [23]", "result": ">>5%^"}, {"measurement": "MIC", "setting": "[12]; [19]", "result": ">>5%"}, {"measurement": "MIC", "setting": "[13]; [24]", "result": 2000, "unit": "µg/mL"}, {"measurement": "MIC", "setting": "[13]; [19]", "result": 0.0018, "unit": "%"}, {"measurement": "MIC", "setting": "[14]", "result": "> 8000", "unit": "µg/mL"}, {"measurement": "MIC", "setting": "[15]; [23]", "result": ">>5%^"}, {"measurement": "MIC", "setting": "[15]; [19]", "result": ">>5%"}, {"measurement": "MIC", "setting": "[16]; [25]", "result": 800, "unit": "µg/mL"}, {"measurement": "MIC", "setting": "[16]; [18]", "result": 0.5, "unit": "%"}, {"measurement": "MIC", "setting": "[16]; [19]", "result": 0.0018, "unit": "%"}, {"measurement": "MIC", "setting": "[17]; [18]", "result": 0.5, "unit": "%"}, {"measurement": "MIC", "setting": "[17]; [19]", "result": 0.0018, "unit": "%"}]}
